# Measured values published in patent US20240182945A1, “PRODUCTS FOR REGULATION OF EUKARYOTIC AND MICROBIAL CELLS GROWTH” (priority 2021, published 2024).
# Key:
# [1] = test system: bacteria of sputum from patients with lung diseases; assay: Sputum plated on 24-well plates with antibiotics at Cmax or C0-4 h, Algorithm #1 or #2; assay type: cell-based
# Experimental: Pathological material (sputum) from patients with lung diseases was plated into wells of 24-well plates filled with a nutrient medium supplemented with erythrocytes 5%, to which antibiotics were added taken at different concentrations.
# Group #1—antibiotics were taken at concentrations close to a maximum (peak) concentration achievable at the site of infection Cmax
# Algorithm #1. Lab technician, analyzed the appearance of bacterial growth by comparing the signs of bacterial growth in each well supplemented with antibiotic(s) at certain timepoint, with the signs of bacterial growth in the same well at previous time point(s).
# Algorithm #2. Lab technician analyzed the appearance of bacterial growth by comparing the signs of bacterial growth in each well supplemented with antibiotic(s) with bacterial growth in antibiotic-free control
# [2] = test system: bacteria of sputum from patients with lung diseases; assay: Standard antibiotic susceptibility study using the microbroth dilution method (Algorithm #3); assay type: cell-based
# Description: Algorithm #3—Standard antibiotic susceptibility study using the microbroth dilution method.
# [3] = test system: bacteria of the biosample (persisters); assay: Neutropenic mice instilled with biosample and treated with antibiotic for 72 h, microbial growth in organs and blood; assay type: in vivo; conditions: neutropenic C57BL/6 mice treated for 72 h, agar with 100 ug/mL of the antibiotic
# Experimental: Next, we confirmed that antibiotics selected with proposed algorithm are effective. Adult C57BL/6 mice were rendered neutropenic by injecting cyclophosphamide subcutaneously 4 days before infection (150 mg/kg of body weight), 1 day before infection (100 mg/kg), and 1 day after infection (100 mg/kg). Mice were anesthetized with 2% isoflurane and orally instilled with biosample (stored at +4 C). Briefly, nares were blocked, and mice aspirated 50 μL of the biosample into the lungs while being held vertically for 60 s.
# Pseudomonas aeruginosa = conditions: cited from earlier work
# P. aeruginosa = assay: Growth of primary pathogen alone on antibiotic-supplemented Columbia agar; assay type: cell-based; conditions: Bacterial set #4; Amikacin (1 μg/mL); Columbia agar with erythrocytes 5%, 24 h at 37 C
# Experimental: Four sputum samples from patients with lung infections were used. Pure bacterial culture of each microorganisms was obtained by routine microbiological methods.
# In this case this antibiotic at MIC of 16 ug/mL was used in the following studies. PP alone, or Microbial Modulators (MM) alone or the original sputum were plated on the wells of 24 well plate filled with nutrient Columbia agar supplemented with erythrocytes 5% and supplemented with antibiotics taken as MIC determined against PP, but not more than 16 μg/mL and incubated 24 h at 37 C.
# E. coli = assay: Growth of microbial modulator alone on antibiotic-supplemented Columbia agar; assay type: cell-based; conditions: Bacterial set #4; Amikacin (1 μg/mL); Columbia agar with erythrocytes 5%, 24 h at 37 C
# S. haemolyticus = assay: as above; assay type: cell-based; conditions: Bacterial set #4; Amikacin (1 μg/mL); Columbia agar with erythrocytes 5%, 24 h at 37 C
# [4] = test system: MIX—PP +BM (P. aeruginosa with microbial modulators); assay: Growth of mix PP + MM (original sputum) on antibiotic-supplemented Columbia agar; assay type: cell-based; conditions: Bacterial set #4; Amikacin (1 μg/mL); Columbia agar with erythrocytes 5%, 24 h at 37 C
# [5] = Algorithm #1, antibiotic at C0-4 h
# [6] = Algorithm #1, antibiotic at Cmax
# [7] = Algorithm #2, antibiotic at C0-4 h
# [8] = Algorithm #2, antibiotic at Cmax
smiles,measurement,setting,value
CN[C@H](CC(C)C)C(=O)N[C@H]1C(=O)N[C@@H](CC(N)=O)C(=O)N[C@H]2C(=O)N[C@H]3C(=O)N[C@H](C(=O)N[C@H](C(=O)O)c4cc(O)cc(O)c4-c4cc3ccc4O)[C@H](O)c3ccc(c(Cl)c3)Oc3cc2cc(c3O[C@@H]2O[C@H](CO)[C@@H](O)[C@H](O)[C@H]2O[C@H]2C[C@](C)(N)[C@H](O)[C@H](C)O2)Oc2ccc(cc2Cl)[C@H]1O [Vancomycin],ATB efficacy,[1]; [5],+
same,ATB efficacy,[1]; [6],−
same,ATB efficacy,[1]; [7],+
same,ATB efficacy,[1]; [8],−
same,ATB efficacy,[2],−
same,Number of animals with positive microbial growth on the agar with antibiotics/total number of animals per group,[3]; Blood,6/8
same,Number of animals with positive microbial growth on the agar with antibiotics/total number of animals per group,[3]; Liver,5/8
same,Number of animals with positive microbial growth on the agar with antibiotics/total number of animals per group,[3]; Lungs,8/8
same,activity against Pseudomonas aeruginosa according to standard micro-broth dilution method,Pseudomonas aeruginosa,not active
NCC[C@H](O)C(=O)N[C@@H]1C[C@H](N)[C@@H](O[C@H]2O[C@H](CN)[C@@H](O)[C@H](O)[C@H]2O)[C@H](O)[C@H]1O[C@H]1O[C@H](CO)[C@@H](O)[C@H](N)[C@H]1O [Amikacin],"microbial growth, PA (PP alone)",P. aeruginosa,+
same,"microbial growth, EC (BM alone)",E. coli,−
same,"microbial growth, SH (BM alone)",S. haemolyticus,+
same,Presence of PP in Mix (PP + MM),[4],−
same,ATB efficacy,[1]; [5],−
same,ATB efficacy,[1]; [6],−
same,ATB efficacy,[1]; [7],−
same,ATB efficacy,[1]; [8],−
same,ATB efficacy,[2],−
